For this test, the target named is T1, ACAT1 (Homo sapiens, UniProt P24752).
T1 construct: endogenous in cells; host or cells: HEK293T
T1 sequence (P24752 34-427): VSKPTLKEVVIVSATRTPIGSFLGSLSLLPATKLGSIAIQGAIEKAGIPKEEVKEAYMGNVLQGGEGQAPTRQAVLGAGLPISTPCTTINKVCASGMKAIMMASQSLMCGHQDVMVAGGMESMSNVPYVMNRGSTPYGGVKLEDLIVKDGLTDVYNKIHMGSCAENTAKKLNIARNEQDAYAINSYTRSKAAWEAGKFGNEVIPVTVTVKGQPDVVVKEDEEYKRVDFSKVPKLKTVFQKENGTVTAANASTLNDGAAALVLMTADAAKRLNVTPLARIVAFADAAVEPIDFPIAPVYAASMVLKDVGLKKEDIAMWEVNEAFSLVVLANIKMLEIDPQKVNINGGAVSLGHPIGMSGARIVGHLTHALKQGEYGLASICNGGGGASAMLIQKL
The test can be described thus: Competitive ABPP (TMT) of cysteine engagement in ACAT1. The note with it: HEK293T, 1.5 h. Type of test: cell-based. On the procedure:
HEK293T cells were treated with DMSO (four biological replicates), 2 μM KB02-SLF (three biological replicates) or 20 μM KB02-JQ1 (three biological replicates) for 1.5 h (ten samples in total). Cells were collected, washed once with PBS and lysed in PBS by sonication (40%, 4, 20 pulses). Samples were clarified by centrifugation for 10 min at 8,000 g. Lysate was adjusted to 1.0 mg/mL in 500 μL. Samples were labeled with 100 μM iodoacetamide alkyne (5 μL of 10 mM stock in DMSO) at room temperature for 1 hour, conjugated by CuACC to desthiobiotin azide (10 μL of 5 mM stock in DMSO, final concentration=100 tris(2-carboxyethyl)phosphine hydrochloride (TCEP, 10 μL of 50 mM stock in H2O, final concentration=1 mM), TBTA (30 μL of 1.7 mM stock in 4:1 tBuOH:DMSO, final concentration=100 μM) and CuSO4 (10 μL of 50 mM stock in H2O, final concentration=1 mM). The samples were allowed to react for 1 hour at room temperature. Proteins were precipitated by adding 3.5 mL of H2O, 4 mL of methanol and 1.5 mL of chloroform, followed by centrifugation at 5,000 g for 15 min (4° C.). After aspirating the top layer, the protein pellets with bottom layer were washed with 8 mL cold methanol by centrifugation at 5,000 g for 15 min (4° C.). […]
The samples were analyzed in Orbitrap Fusion Tribrid mass spectrometer (Thermo Scientific) coupled to UltiMate 3000 HPLC system (Thermo Scientific). […]

The structures appear in SMILES notation.

Turning to `Cc1sc2c(c1C)C(c1ccc(Cl)cc1)=N[C@@H](CC(=O)NCCOCCOCCNC(=O)COc1ccc3c(c1)CCCN3C(=O)CCl)c1nnc(C)n1-2` [KB02-JQ1, (S)-2-((1-(2-chloroacetyl)-1,2,3,4-tetrahydroquinolin-6-yl)oxy)-N-(2-(2-(2-(2-(4-(4-chlorophenyl)-2,3,9-trimethyl-6H-thieno[3,2-f][1,2,4]triazolo[4,3-a][1,4]diazepin-6-yl)acetamido)ethoxy)ethoxy)ethyl)acetamide], the “engagement of ACAT1 C126” value (KB02-JQ1 20 μM) is given as “fully engaged”. Regarding `CCC(C)(C)C(=O)C(=O)N1CCCC[C@H]1C(=O)O[C@H](CCc1ccc(OC)c(OC)c1)c1cccc(NC(=O)CCOCCOCCNC(=O)COc2ccc3c(c2)CCCN3C(=O)CCl)c1` [KB02-SLF, (R)-1-(3-(3-(2-(2-(2-((1-(2-chloroacetyl)-1,2,3,4-tetrahydroquinolin-6-yl)oxy)acetamido)ethoxy)ethoxy)propanamido)phenyl)-3-(3,4-dimethoxyphenyl)propyl (S)-1-(3,3-dimethyl-2-oxopentanoyl)piperidine-2-carboxylate], the “engagement of ACAT1 C126” value (KB02-SLF 2 μM) is listed as “fully engaged”.
